From patent publication US20040175383A1, “Methods and compositions for treatment of otitis media” (priority 2002, published 2004)
Read-outs that look alike come from different tables or passages of the source.

Columns and labels:
[1] = tested on: acute otitis media induced by Streptococcus pneumoniae; type: in vivo, chinchilla
Experimental: All study animals were initially anesthetized to allow baseline hearing testing (electrocochleography and tympanometry) and to allow bacteria (Streptococcus pneumoniae) to be injected across the thin bone covering the middle ear (dorsal bulla) to induce a middle ear infection bilaterally. After allowing the inflammation to become established for 3 to 4 days, the ears were graded for severity of middle ear inflammation. Half the ears were injected with alpha 1-antitrypsin (100 mg/ml)half with saline. All animals received systemic antibacterial treatment (enrofloxacin). […] Assessment was given quantiatively according to the following table: [table] Hearing assessment were also performed throughout the study and following euthanasia at the end of study, temporal bone specimens were obtained from all ears for histopathological analysis.

[2] = in vivo
Experimental: (§1) Prospective, randomized, controlled trial in the chinchilla model.
(§2) After completing baseline auditory testing and bilateral transpalatal obstruction of the Eustachian tube (ETO), chinchillas received weekly transbullar injections of protease inhibitor (alpha 1-antitrypsin, ilomastat, or both), vehicle, or saline. After one month, hearing was tested and the animals were sacrificed. Temporal bone histopathology was performed.
(§3) A total of 96 healthy adult chinchillas of either sex, 400-600 grams, were used in this experiment. Prior to entry into the study, all animals were otomicroscopically free of middle ear pathology. All animals underwent auditory testing and bilateral transpalatal obstruction of the Eustachian tube, followed by immediate transbullar injection (across the thin bone covering the dorsal aspect of the middle ear) of saline or vehicle solution, with or without protease inhibitor. Thus, there were five treatment groups: saline, vehicle solution, vehicle with alpha 1-antitrypsin (100 μg /ml), vehicle with ilomastat (100 μg /ml), and vehicle with alpha 1-antitrypsin and ilomastat (100 μg /ml of each). Weekly thereafter, animals received a light anesthetic for ear examinations, transbullar sampling of the middle ear fluid, and transbullar reinjection of saline or the vehicle +/− protease inhibitor. One month after ETO, animals were anesthetized, middle ear fluid was removed, and auditory testing was performed immediately prior to sacrifice. Temporal bones were harvested for histopathological analysis.
(§4) Ilomastat was prepared by substituting alpha 1-antitrypsin. Vehicle was similarly prepared, without the addition of any protease inhibitor. Injectable, 0.9% normal saline was used as the non-treatment control.
(§5) Briefly, the palate was split and the Eustachian tube orifices were bluntly palpated. The orifices were denuded of mucosa, the deeper tissues cauterized, and the lumen packed with Gelfoam sponge. The palate was reapproximated with a single layer of polyglycolic acid sutures.
(§6) Auditory Evaluation: Assessment of auditory thresholds was performed using electrocochleography. […] Electrocochleographic thresholds were measured for clicks and tone pips at 4, 8, 12, and 16 kHz. Stimulus generation was executed by an auditory electrophysiology workstation with SigGen™ and AeP™ software (Tucker-Davis Technologies, Gainesville, Fla.) and Etymotic transducers (ER-2, Elk Grove Village, Ill.). Stimuli were introduced with an insert earphone tube placed into the external auditory canal, just medial to the crus of the helix. Auditory thresholds were evaluated by decreasing stimulus intensity in 5 dB increments, from a maximum of 100 dB, until the waveform disappeared. At that point, the stimulus intensity was increased in 5 dB increments until the waveform re-emerged. […]

[3] = tested on: inner ear / hearing (electrocochleographic thresholds); details: in vivo
Experimental: as §1, §2, §3, §4, §5, §6

[4] = tested on: MMP activity (tMMP, predominantly MMPs 2 and 9) in MEE samples; assay: MMP activity in human middle ear effusion samples in the presence of ilomastat (colorimetric synthetic substrate assay); type: biochemical; parameters: Inhibition of MMP activity, overall / Ilomastat-MMP Inhibition % (mean inhibition): concentration or dose not given beside the values; details: for Ilomastat-MMP Inhibition % (mean inhibition) / MMP >30% Inhibition (percent of samples that had enzyme activity inhibited by >30%): MEE samples
Source text: Human Subjects & Sample Collection: Middle ear effusion (MEE) samples were collected from all consenting patients that presented to the investigators for the treatment of OM. Most samples were taken from subjects at the time of myringotomy, with or without tube placement, for recurrent acute otitis media (RAOM) and chronic otitis media with effusion (COME). Less commonly, samples were collected upon presentation with acute post-tympanostomy otorrhea (APTO) or with chronic suppurative otitis media (CSOM). Samples were aspirated with a Juhn Tymp-Tap (Medtronic-Xomed, Jacksonville, Fla.). The aspiration device was rinsed—and sample diluted—with 500 μl of normal saline and immediately placed on ice for transport to the investigators' laboratories. Samples were centrifuged to remove cellular material then divided into aliquots and frozen until batch processing could be performed.
Protease and Inhibition Analysis: Active (aMMP) and proenzyme (pMMP) forms of MMPs 2 and 9 were measured using a gelatin zymography technique. MMP activity (tMMP, but predominantly MMPs 2 and 9) present in MEE samples was measured using a […] assay that uses a synthetic substrate that reduces Ellmans reagent upon cleavage. Because two different activity assays were used that detected different types and levels of MMPs, a direct comparison between aMMP, pMMP and tMMP was not considered valid. Human neutrophil elastase (HNE) activity was measured using a standard technique. Results were expressed as change in absorbance over time (mAU/min). […] Samples with excessive activity levels were tested by serial dilution. MMP activity was measured in the presence of physiologically deliverable levels of ilomastat.
Statistical Analysis: An analysis of variance was performed on the enzyme activities and mean inhibition of activities to determine if there were differences activities across diagnoses, middle ear findings. If there were statistically significant differences, […] tests were performed. […] The distribution of patients with an activities greater than 3 mAU/min and inhibition greater than 30% was tested using Fisher's exact test to determine if there was a difference in these distributions across diagnoses.

[5] = tested on: inner ear / hearing (electrocochleographic thresholds); assay: Ototoxicity study in chinchilla with Eustachian tube obstruction, weekly transbullar injection of protease inhibitors; details: applied to the middle ear
Experimental: as §1, §2, §3, §4, §5, §6

rAAT: Recombinant alpha 1-antitrypsin, a serine protease inhibitor, expressed in recombinant yeast cells and purified by column chromatography
TM Score ([1]; Day 1, otomicroscopic scale 0 (normal) to 6 (perforated)): 0 | TM Score ([1]; Day 4, scale 0-6): 2.167 | TM Score ([1]; Day 6, scale 0-6): 4.17 | TM Score ([1]; Day 8, scale 0-6): 3.5 | TM Score ([1]; Day 10, scale 0-6): 2.8 | TM Score ([1]; Day 14, scale 0-6): 1.25 | TM Score ([1]; Day 16, scale 0-6): 0.75 | TM Score ([1]; Day 18, scale 0-6): 0.5 | TM Score ([1]; Day 20, scale 0-6): 0.5 | TM Score ([1]; Day 22, scale 0-6): 0 | TM Score ([1]; Day 24, scale 0-6): 0 | TM Score ([1]; Day 26, scale 0-6): 0 | TM Score ([1]; Day 28, scale 0-6): 0 | Middle ear inflammation by otomicroscopy, compared with saline ([1]; otic administration, with systemic enrofloxacin): mitigated the inflammatory process more rapidly than saline | Time to resolution of clinical manifestations of otitis media ([1]; single application of rAAT, control 26 days): 22 days | Persistence of middle ear effusion at the final treatment day (percent of ears) [2]: 100% | Ototoxicity in the chinchilla model [3]: lack ototoxicity

CNC(=O)[C@H](Cc1c[nH]c2ccccc12)NC(=O)[C@@H](CC(=O)NO)CC(C)C [Ilomastat, N-[2(R)-2(hydroxyamidocarbonylmethyl)-4-methylpentanoyl]-L-tryptophan methyl amide]
Ilomastat-MMP Inhibition % (mean inhibition) ([4]; diagnosis APTO): 41.2% | MMP >30% Inhibition (percent of samples that had enzyme activity inhibited by >30%) ([4]; diagnosis APTO): 57% | Ilomastat-MMP Inhibition % (mean inhibition) ([4]; diagnosis COME): 70.0% | MMP >30% Inhibition (percent of samples that had enzyme activity inhibited by >30%) ([4]; diagnosis COME): 86% | Ilomastat-MMP Inhibition % (mean inhibition) ([4]; diagnosis CSOM): 51.5% | MMP >30% Inhibition (percent of samples that had enzyme activity inhibited by >30%) ([4]; diagnosis CSOM): 40% | Ilomastat-MMP Inhibition % (mean inhibition) ([4]; diagnosis Cholesteatoma): 31.5% | MMP >30% Inhibition (percent of samples that had enzyme activity inhibited by >30%) ([4]; diagnosis Cholesteatoma): 71% | Ilomastat-MMP Inhibition % (mean inhibition) ([4]; diagnosis RAOM): 85.5% | MMP >30% Inhibition (percent of samples that had enzyme activity inhibited by >30%) ([4]; diagnosis RAOM): 100% | Ilomastat-MMP Inhibition % (mean inhibition) ([4]; diagnosis RAOM/COME): 81.4% | MMP >30% Inhibition (percent of samples that had enzyme activity inhibited by >30%) ([4]; diagnosis RAOM/COME): 100% | Percent of MEEs with significant inhibition (>30% reduction) of MMP activity ([4]; MEEs with significant MMP activity (>3 mAU/min)): 80% | Inhibition of MMP activity, overall ([4]; all MEE samples): 64% | Persistence of middle ear effusion at the final treatment day (percent of ears) [2]: 83% | Ototoxicity in the chinchilla model [5]: lack ototoxicity
